# Tests used:
# SCW Arthritis Model = assay: SCW Arthritis model (PGPS-induced paw swelling); format: in vivo, Female Sprague dawley (SD) rats; conditions: Dose: 10 mpk, po, rats, Mean ± SD, n = 8
# Experimental: All the animal experiments were carried out in female rats and mice, bred in-house. Animals were housed in groups of 6 animals per cage, for a week, in order to habituate them to vivarium conditions (25±4° C., 60-65% relative humidity, 12: 12 h light: dark cycle, with lights on at 7.30 am). All the animal experiments were carried out according to the internationally valid guidelines following approval by the ‘Zydus Research Center animal ethical committee’. SCW Arthritis Female Sprague dawley (SD) rats were primed with an intra-articular injection of 20 μl of peptidoglycan polysaccharide (PGPS), at 0.5 mg/ml of rhamnose in the right ankle. At 2 weeks the paw swelling were measured using a plethysmometer and rats assigned to groups based on initial paw swelling. On day 14 after model initiation, rats were dosed orally (po) with the test compounds. Following the dose administration, 1 h later, the rats received a booster dose of 0.5 ml of PGPS (0.5 mg/ml of rhamnose) via i.v. injection using their tail vein. Compounds were dosed for the following two more days and their paw volumes were measured for 3 more days. The efficacy of the compound was determined as percentage inhibition of paw swelling verses the control (untreated) group.
# CYP 2C8 = molecular target: T1, CYP 2C8 (Homo sapiens, UniProt P10632); assay: CYP inhibition in human liver microsomes, 2C8; format: in vitro ADME; conditions: pH 7.4, @ 10 μM concn
# T1 construct: from tissue; host or cells: human liver microsomes
# T1 sequence (P10632 1-490): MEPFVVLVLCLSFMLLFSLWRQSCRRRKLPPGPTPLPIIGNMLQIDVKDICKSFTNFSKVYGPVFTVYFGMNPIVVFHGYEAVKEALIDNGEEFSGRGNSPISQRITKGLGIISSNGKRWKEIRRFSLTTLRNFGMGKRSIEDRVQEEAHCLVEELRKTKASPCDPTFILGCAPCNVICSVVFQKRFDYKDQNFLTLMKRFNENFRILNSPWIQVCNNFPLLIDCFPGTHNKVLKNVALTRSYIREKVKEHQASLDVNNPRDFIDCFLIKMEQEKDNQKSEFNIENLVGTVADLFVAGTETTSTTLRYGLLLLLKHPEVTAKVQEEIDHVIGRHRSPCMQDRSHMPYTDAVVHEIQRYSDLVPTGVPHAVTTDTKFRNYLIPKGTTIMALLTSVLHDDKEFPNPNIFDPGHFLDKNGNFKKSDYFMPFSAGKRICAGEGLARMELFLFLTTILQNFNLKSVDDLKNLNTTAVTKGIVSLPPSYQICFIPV
# Summary of the method: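 Human liver microsomes in 100 mM phosphate pH 7.4 with CYP-specific probe substrate were incubated with test compound at […] and 10 μM, started with 1 mM NADPH at 37° C. Reactions were stopped with acetonitrile, and marker-reaction metabolites were quantified by LC-MS/MS. Final solvent was ≤0.2%.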
# TMD-8 cells = assay: Diffused large B cell lymphoma xenografts using TMD-8 cell line; format: in vivo, Female SCID mice; conditions: Dose: 10 mpk, po, SCID mice, Mean ± SD, n = 8
# Experimental: All the animal experiments were carried out in female rats and mice, bred in-house. Animals were housed in groups of 6 animals per cage, for a week, in order to habituate them to vivarium conditions (25±4° C., 60-65% relative humidity, 12: 12 h light: dark cycle, with lights on at 7.30 am). All the animal experiments were carried out according to the internationally valid guidelines following approval by the ‘Zydus Research Center animal ethical committee’.
# Diffused Large B Cell Lymphoma Xenografts Using TMD-8 Cell Line
# Female SCID mice were inoculated sc with 10×10^6 TMD-8 cells in 0.1 mL of PBS to the right flank. Animals were observed twice weekly for occurrence of tumor. Once the tumors became palpable (around 100 mm^3) around 14 days after injection, treatment was initiated via oral route. Tumor volume was determined every alternate day using digital calipers and the tumor volume was calculated using the formula: [length/2]×[width^2]. Body weights of the animals were also recorded 3 times a week as a measure of treatment related side effect. Treatment was continued for two more weeks and inhibition of tumor volume compared to vehicle control was considered as efficacy endpoint.
SMILES,"% inhibition of paw inflammation, Day-16, in SCW Arthritis Model (SCW Arthritis Model)",inhibition at 10 μM (CYP 2C8),"% Inhibition in tumor volume, Day-16, in TMD-8 Xenografts Model (TMD-8 cells)"
"C=CC(=O)N1CC2CC(N3C(=O)N(c4ccc(Oc5ccccc5)cc4)C4C(N)=NC=NC43)CC2C1 (stereo not drawn) [Compound 25, 9-(2-acryloyloctahydrocyclopenta[c]pyrrol-5-yl)-6-amino-7-(4-phenoxyphenyl)-5,7-dihydro-4H-purin-8(9H)-one]",69.6 ± 12.7%,< 50%,50.2 ± 10.1%
"C=CC(=O)N1CC2CC(n3nc(-c4ccc(NC(=O)c5ccccn5)cc4)c4c(N)ncnc43)CC2C1 (stereo not drawn) [Compound 32, N-(4-(1-(2-acryloyloctahydrocyclopenta[c]pyrrol-5-yl)-4-amino-1H-pyrazolo[3,4-d]pyrimidin-3-yl)phenyl)picolinamide]",75.3 ± 6.2%,< 50%,56.1 ± 8.2%
"C=CC(=O)N1CC2CC(n3nc(-c4ccc(C(=O)Nc5cc(C)ccn5)cn4)c4c(N)ncnc43)CC2C1 (stereo not drawn) [Compound 42, 6-(1-(2-acryloyloctahydrocyclopenta[c]pyrrol-5-yl)-4-amino-1H-pyrazolo[3,4-d]pyrimidin-3-yl)-N-(4-methylpyridin-2-yl)nicotinamide]",51.3 ± 9.7%,< 50%,62.2 ± 8.8%
"C=CC(=O)N1CC2CC(n3nc(-c4ccc(-c5nnc(-c6cnccn6)s5)cc4)c4c(N)ncnc43)CC2C1 (stereo not drawn) [Compound 46, 1-(5-(4-amino-3-(4-(5-(pyrazin-2-yl)-1,3,4-thiadiazol-2-yl)phenyl)-1H-pyrazolo[3,4-d]pyrimidin-1-yl)hexahydrocyclopenta[c]pyrrol-2(1H)-yl)prop-2-en-1-one]",81.8 ± 11.2%,< 50%,54.3 ± 9.1%
"C=CC(=O)N1CC2CC(n3nc(-c4ccc(C(=O)N(C)c5cc(C)ccn5)cc4)c4c(N)ncnc43)CC2C1 (stereo not drawn) [Compound 54, 4-(1-(2-acryloyloctahydrocyclopenta[c]pyrrol-5-yl)-4-amino-1H-pyrazolo[3,4-d]pyrimidin-3-yl)-N-methyl-N-(4-methylpyridin-2-yl)benzamide]",89.2 ± 10.3%,< 50%,92.1 ± 13.1%
